Data set [1] addresses Protein farnesyltransferase (Homo sapiens, UniProt P49354+P49356). As to the kind of experiment: In vitro inhibitory activity was evaluated against farnesyltransferase (FTase). The class given is protein-complex assay.
Data set [2] in a line: (§1) Half life of compound determined in rat after iv administration at a dose of 10 mg/kg. It is filed as ADME, organism-based. Details: dose 10 mg/kg, route intravenous. The settings on record: in vivo.
A short description of data set [3]: Tmax of compound determined in rat after iv administration at a dose of 10 mg/kg. It is filed as ADME, organism-based. Details: dose 10 mg/kg, route intravenous. The settings on record: in vivo.
Data set [4] is described as follows: Area under curve of compound determined in dog after iv administration at a dose of 10 mg/kg. It is filed as ADME, organism-based, Canis lupus familiaris. Details: dose 10 mg/kg, route intravenous. The settings on record: in vivo.
Data set [5] is described as follows: Area under curve of compound from zero time to infinity determined in dog […] at a dose of 10 mg/kg. The settings on record: in vivo. Set-up: time infinity, dose 10 mg/kg, route intravenous. It is filed as ADME, organism-based, Canis lupus familiaris.
A short description of data set [6]: Oral bioavailability of compound determined in dog […] at a dose of 10 mg/kg. The class given is ADME, organism-based, Canis lupus familiaris. The settings on record: in vivo.
A further data set relates to Rattus norvegicus. As to the kind of experiment: Maximum plasma drug concentration of compound determined in rat after iv administration at a dose of 10 mg/kg. Set-up: dose 10 mg/kg, route intravenous. The settings on record: in vivo. The class given is ADME, organism-based.
The nature of data set [7]: Tmax of compound determined in dog […] at a dose of 10 mg/kg. The class given is ADME, organism-based, Canis lupus familiaris. Details: dose 10 mg/kg, route intravenous. The settings on record: in vivo.
Data set [8] in a line: as §1. It is filed as ADME, organism-based. Set-up: dose 10 mg/kg, route intravenous. The settings on record: in vivo. This is another data set of the same source.
Data set [9] in a line: Oral bioavailability of compound determined in mouse […] at a dose of 10 mg/kg. The class given is ADME, organism-based. The settings on record: in vivo.
Another data set concerns Canis familiaris. Kind of data set: Maximum plasma drug concentration of compound determined in dog […] at a dose of 10 mg/kg. It is filed as ADME, organism-based, Canis lupus familiaris. Set-up: dose 10 mg/kg, route intravenous. The settings on record: in vivo.
A short description of data set [10]: Area under curve of compound determined in rat after iv administration at a dose of 10 mg/kg. It is filed as ADME, organism-based. The settings on record: in vivo. Details: dose 10 mg/kg, route intravenous.
Data set [11] in a line: Area under curve of compound from zero time to infinity determined in rat after iv administration at a dose of 10 mg/kg. It is filed as ADME, organism-based. The settings on record: in vivo. Details: time infinity, dose 10 mg/kg, route intravenous.
A short description of data set [12]: Oral bioavailability of compound determined in rat […] at a dose of 10 mg/kg. The settings on record: in vivo. The class given is ADME, organism-based.

SMILES strings stand for the structures. Where only a bound is given, the exact number is not on record here.

For `CSCC[C@H](NC(=O)c1ccc(CNCc2ccco2)cc1-c1ccccc1)C(=O)O`, half-maximal inhibition in [1] (IC50) was put at 560 nM.

As to `COc1ccccc1-c1ccc(COCc2ccc(C(=O)N[C@@H](CCSC)C(=O)O)c(-c3ccccc3C)c2)o1`, in [1], the IC50 amounted to 20 nM. The same measure, in the same setting: the value for `CSCC[C@H](NC(=O)c1ccc(COCc2ccc(-c3ccccn3)o2)cc1-c1ccccc1C)C(=O)O` was 19 nM; that for `CSCC[C@H](NC(=O)c1ccc(COCc2ccc(-c3ccc(Cl)c(F)c3)o2)cc1-c1ccccc1C)C(=O)O` was 4.9 nM. Consider `CSCC[C@H](NC(=O)c1ccc(COCc2ccc(-c3ccc(Cl)cc3)o2)cc1-c1ccccc1C)C(=O)[O-].[Li+]`, for which the half-life is 74.4 min in data set [2] and 78 min in data set [8]. Further, the Tmax in [3] came out at 42 min; in [7], 24 min. The AUC in data set [4] is 4940 ng·h/mL; in data set [5], 1040 ng·h/mL; in data set [10], 8100 ng·h/mL; in [11] it was 2390 ng·h/mL. The bioavailability in data set [6] turned out to be 21.1%; in data set [9] it was 32%; in data set [12] it was 30%. Moreover, the Cmax was 1250 ng/mL with Rattus norvegicus and 713 ng/mL in the data set with Canis familiaris. This compound displayed an IC50 in data set [1] of 0.7 nM. For the compound `CSCC[C@H](NC(=O)c1ccc(COCc2ccc(-c3cccnc3)o2)cc1-c1ccccc1C)C(=O)O`, the IC50 in data set [1] is 6.5 nM.

Regarding `CSCC[C@H](NC(=O)c1ccc(COCc2ccc(-c3ccncc3)o2)cc1-c1ccccc1C)C(=O)O`, inhibition in [1] was half-maximal at 2.4 nM (IC50). In data set [1], `CSCC[C@H](NC(=O)c1ccc(COCc2ccc(-c3ccccc3)o2)cc1-c1ccccc1C)C(=O)O` displayed an IC50 of 6 nM.

For `CSCC[C@H](NC(=O)c1ccc(COCc2ccc(-c3ccccc3F)o2)cc1-c1ccccc1C)C(=O)O`, the half-inhibitory concentration (IC50) in data set [1] turned out to be 6.3 nM. The same measure, in the same setting: the value for `CSCC[C@H](NC(=O)c1ccc(COCc2ccc(-c3ccc(C)cc3)o2)cc1-c1ccccc1C)C(=O)O` was 2.9 nM; that for `CSCC[C@H](NC(=O)c1ccc(COCc2ccc(-c3ccc(SC)cc3)o2)cc1-c1ccccc1C)C(=O)O` was 6.2 nM; that for `CSCC[C@H](NC(=O)c1ccc(COCc2ccc(-c3cccc(F)c3)o2)cc1-c1ccccc1C)C(=O)O` was 7.6 nM. In turn, `CSCC[C@H](NC(=O)c1ccc(COCc2ccc(-c3ccc(N(C)C)cc3)o2)cc1-c1ccccc1C)C(=O)O` displayed an IC50 in [1] of 2.6 nM. Compound `CSCC[C@H](NC(=O)c1ccc(COc2ccccc2)cc1-c1ccccc1)C(=O)O` returned an IC50 in data set [1] above 1000 nM. Regarding `COc1ccc(-c2ccc(COCc3ccc(C(=O)N[C@@H](CCSC)C(=O)O)c(-c4ccccc4C)c3)o2)cc1`, in data set [1], it took 8.4 nM to reach half-maximal inhibition (IC50).

In the case of `CSCC[C@H](NC(=O)c1ccc(COCc2ccc(-c3cccc(C(F)(F)F)c3)o2)cc1-c1ccccc1C)C(=O)O`, in [1], the IC50 came out at 8.8 nM.

The compound `CSCC[C@H](NC(=O)c1ccc(COCc2ccc(-c3ccc(F)cc3)o2)cc1-c1ccccc1C)C(=O)O` came in with an IC50 in data set [1] of 1.5 nM. Same read-out and setting: with `COc1cccc(-c2ccc(COCc3ccc(C(=O)N[C@@H](CCSC)C(=O)O)c(-c4ccccc4C)c3)o2)c1` the figure was 12 nM. In turn, `CSCC[C@H](NC(=O)c1ccc(COCc2ccc(-c3ccccc3C(F)(F)F)o2)cc1-c1ccccc1C)C(=O)O` displayed an IC50 in data set [1] of 9.9 nM. In data set [1], `CSCC[C@H](NC(=O)c1ccc(COCc2ccc(-c3ccc(C(C)C)cc3)o2)cc1-c1ccccc1C)C(=O)O` had an IC50 of 2.9 nM. `CSCC[C@H](NC(=O)c1ccc(COCc2ccc(-c3ccc(C=O)cc3)o2)cc1-c1ccccc1C)C(=O)O` came in with an IC50 in data set [1] of 1.2 nM. Same read-out and setting: the value for `CSCC[C@H](NC(=O)c1ccc(COCc2ccc(-c3ccc(C(F)(F)F)cc3)o2)cc1-c1ccccc1C)C(=O)O` was 3 nM; that for `CSCC[C@H](NC(=O)c1ccc(COCc2ccc(-c3cccc([N+](=O)[O-])c3)o2)cc1-c1ccccc1C)C(=O)O` was 6 nM. Same read-out and setting: with `COC(=O)[C@H](CCSC)NC(=O)c1ccc(COCc2ccc(Br)o2)cc1-c1ccccc1C` the figure was 3 nM; with `CSCC[C@H](NC(=O)c1ccc(COCc2ccc(-c3ccc(C(C)=O)cc3)o2)cc1-c1ccccc1C)C(=O)O`, 6.6 nM.

These data come from ChEMBL document CHEMBL1131673, “Potent and orally bioavailable noncysteine-containing inhibitors of protein farnesyltransferase” (Bioorg Med Chem Lett, 1999).
